In patent US5436243A, “Aminoanthraquinone derivatives to combat multidrug resistance” (priority 1993, dated 1995):
Entries after “also recorded” stand apart in the source; their conditions may differ.

Assays:
MCF7 Adr 10 = assay: 72 hour MTT proliferation assay, reversal of drug resistance in MCF7 Adr 10; type: cell-based, human
Description: In 72 hour MTT proliferation assays using the following method, compounds 1b, 1c and 1d were assessed for inhibition of Vinca alkaloid and anthracycline drug resistance in MDR MCF7. Additionally, compounds 1b and 1c were assessed for potentiation of sensitivity to Vinca alkaloid and anthracycline drugs in the parental MCF7 WT cell line.
METHOD: 5000 cells per well were plated in 100 μl of IMDM containing 10% FCS and allowed to adhere overnight. The following day the cells were treated with N-substituted 1,4-diaminoanthraquinones and exposed to graded concentrations of antineoplastic agents. 50 μl of IMDM 10% FCS containing either vehicle or N-substituted 1,4-diaminoanthraquinones at 3 times the final tested concentration was added to cells at timed intervals. The plates were incubated for 2 hours at 37° C. to allow maximal cellular accumulation of N-substituted 1,4-diaminoanthraquinones. 40 μl aliquots of IMDM 10% FCS containing either vehicle or graded concentrations of antineoplastic drugs at 5 times the final concentration were added to treatment groups. Following this addition, 10 μl of IMDM 10% FCS containing either vehicle or N-substituted 1,4-diaminoanthraquinone at 5 times the final concentration was added to each group of wells. The cells were incubated for 72 hours after treatment. At this time the viable cells in each treatment group were estimated in a colorimetric assay by adding MTT and incubating the cells at 37° C. for 3-4 hours. The media in each well was aspirated and MTT formazan was solubilized in isopropyl alcohol acidified with 0.1 N HCl. The absorbance of the solubilized formazan was quantitated using a plate reader spectrophotometer. […] The concentrations of antineoplastic drugs which inhibited proliferation by 50% (IC50's) were estimated by calculating a percentage from the ratio: antineoplastic drug treated groups/control group absorbance and plotting the dose response curve on semilog paper. The IC50 was estimated from this curve. To assess the effects of inhibition of resistance by N-substituted 1,4-diaminoanthraquinones, the percentages were calculated relative to cell groups treated with resistance modifier alone and IC50's calculated as above. A reversal factor was calculated by dividing the IC50 to the antineoplastic drug alone (Control group) by the IC50 to antineoplastic drug in cells treated with resistance modifier.

[1] = system: MCF7 Adr 10 human breast cancer cells; assay: Time course of accumulation of anthraquinones in cells; type: cell-based; details: 25 μM, 37° C., MCF7 Adr 10 cells
Description: METHOD: Near confluent monolayers of MCF7 ADR 10 were washed 2 times with Dulbecco's Phosphate Buffered Saline (DPBS) and 1 ml of Iscove's Modified Dulbecco's Medium (IMDM) was added to each well. The monolayers were treated with 25 μM 1b or 1c and incubated at 37° C. After incubating the samples for the times indicated in FIG. 1, the monolayers were washed three times with DPBS and detached using 1 ml of Trypsin-EDTA.An aliquot of the cell suspension was counted using a Coulter Counter and a 0.8 ml aliquot was extracted in a Bligh-Dyer extraction (Bligh et at., Can. J. Biochem. 31:911-916 (1959)). The absorbance of the lower chloroform phase was measured at 648 nm and 600 nm using a spectrophotometer. The amount of 1b or 1c present in the extract was quantitated from a standard curve performed in cell extracts. The data is expressed as nmol anthraquinone/10^6 cells.

## O=C1c2ccccc2C(=O)c2c(NCCCN3CCOCC3)ccc(NCCCN3CCOCC3)c21 [Compound 1c, 1,4-bis-[[3'(4-morpholino)propyl]amino]anthraquinone]
MCF7 Adr 10
  inhibition of Vinca alkaloid drug resistance: inhibit Vinca alkaloid drug resistance at nanomolar concentrations
MCF7 Adr 10; MCF7 Adr 10
  inhibition of drug resistance / MDR phenotype: most potent inhibitor of the MDR phenotype in the MCF7 Adr 10 cell line; also recorded: more potent MDR phenotype inhibitor than 1d
MCF7 Adr 10; [1c] 0.1 μM
  Reversal Factor (VCR): 2.3
  Reversal Factor (VLB): 2.2
MCF7 Adr 10; [1c] 0.25 μM
  Reversal Factor (VCR): 5.0
  Reversal Factor (VLB): 3.5
MCF7 Adr 10; [1c] 0.5 μM
  Reversal Factor (ADR): 2.0
  Reversal Factor (DNR): 1.9
  Reversal Factor (VCR): 10.4
  Reversal Factor (VLB): 8.5
MCF7 Adr 10; [1c] 1.0 μM
  Reversal Factor (ADR): 3.3
  Reversal Factor (DNR): 3.2
  Reversal Factor (VCR): 24.8
  Reversal Factor (VLB): 9.2
MCF7 Adr 10; test concentrations, n=14, 4320 min
  average cell growth in the presence of 1c alone, of the vehicle control: greater than 86%
[1]
  time of maximal accumulation of 1b and 1c: about 2 hours
